Values quoted from earlier work in US20110092602A1 (priority 2008, published 2011).
Read-outs that look alike come from different tables or passages of the source.

How the values were obtained:
[1] = pH 7
[2] = not given; remark: listed apart in the source

In the case of `COc1cccc([C@]2(O)CCCC[C@H]2CN(C)C)c1.Cl` (racemic) [Tramadol hydrochloride, (±)cis-2-[(dimethylamino)methyl]-1-(3-methoxyphenyl)cyclohexanol hydrochloride], the solubility (ethanol) is given as “readily soluble”, the solubility (water) is given as “readily soluble” and the “n-octanol/water log partition coefficient (logP)” value [1] is given as 1.35.

For `CN(C)C[C@H]1CCCC[C@]1(O)c1cccc(O)c1` [Example M1], the “potency in producing analgesia relative to tramadol” value ([2]; animal models) is given as “up to 6 times”, the “affinity of binding to μ-opioid receptors” value (μ-opioid receptors) is given as “higher affinity” and the “potency in μ-opioid binding relative to tramadol” value (μ-opioid receptors; animal models) is given as 200 times.

In the case of `COc1cccc(C2(O)CCCCC2CN(C)C)c1` (centres unmarked) [Tramadol, 2-dimethylaminomethyl-1-(3-methoxyphenyl)cyclohexanol], the “antagonism of analgesia by the opiate antagonist naloxone” value ([2]; several animals tests) is listed as “only partially antagonized” and the “affinity of binding to μ-opioid receptors” value (μ-opioid receptors) is listed as “low affinity”.
